Experimental data as given in US9802897B2, “Amidopyridinol derivative or pharmaceutically acceptable salt thereof and pharmaceutical composition comprising same as active component” (Research Cooperation Foundation of Yeungnam University, priority 2013, dated 2017).

Experiments:
HUVEC cells = experiment: Scavenging of VEGF-induced ROS in HUVEC cells (DCF-DA fluorescence); format: cell-based; conditions: pre-treated 3 hours, induced by VEGF 15 minutes, vs VEGF-induced cells
Description: (§1) To measure scavenging effects of ROS in HUVEC cells that were induced by VEGF, 2′,7′-dichlorofluorescein diacetate (DCF-DA) was used. […] After […] at a concentration of 1×10^5, each of which well was coated with 0.2% gelatin, DCF-DA was cultured for 24 hours. Meanwhile, Compounds 8a and 8b were pre-treated for 3 hours, induced by VEGF for 15 minutes, and then, washed with PBS (pH 7.4) three times. Then, 10 μM of DCF-DA was placed in a EBM-2 medium to be treated for 30 minutes in a dark room. Then, DCF-DA was washed again with PBS three times, and then, subjected to measure intensity of fluorescence in the cells by using a fluorescence microscope.

ARPE-19 cell line = experiment: Scavenging of ROS induced by risk factors of macular degeneration (4-HNE, Ang II) in ARPE-19 cells; format: cell-based; conditions: vs control group
Description: as §1
According to a similar manner as in Experimental Example 2, a risk factor of macular degeneration, e.g., 4-hydroxynonenal (4-HNE) or angiotensin II (Ang II), were treated with an adult retinal pigment epithelium-19 (ARPE-19) cell line, so as to observe scavenging effects of ROS in Compounds 8a and 8b.

cathepsin S = experiment: RT-PCR of cathepsin S gene expression in MDA-MB-231 cells; format: cell-based; conditions: Homo sapiens, MDA-MB-231, 24 h, screening, 1 μM of each compound; MDA-MB-231, RT-PCR; read-out: Inhibition rate of expression of cathepsin S (%)
Description: Each compound of the present invention was treated with breast cancer cells (1×10^5 cell/cm^2), e.g., MDA-MB-231, and then, cultured at a temperature of 37° C. for 24 hours in a cell incubator. Afterwards, a trizole reagent was used to extract the entire mRNA therefrom. 24 hours later, the culture medium was removed therefrom, 1 mL of the triazole reagent was added to each well, and then, the cell elusion was transferred to a 1.5 mL tube. After 200 μl of chloroform was added to each sample, the samples were subjected to centrifugation at a temperature of 4° C., at 12,000 g, for 15 minutes. 500 μl of the supernatant obtained therefrom was transferred to a new tube. After 500 μl of isopropylalcohol was added to each sample, the samples were subjected to centrifugation at a temperature of 4° C., at 12,000 g, for 15 minutes. The supernatant obtained therefrom was removed from each sample, and then, the samples were washed with 75% ethanol to clean mRNA while the precipitants were dried. Then, mRNA extracted therefrom was dissolved in RNase-free water, followed by being heated at a temperature of 55° C. for 10 minutes.
After the RNA quantification, the GoScript™ reverse transcription system (Promega Corporation, Madison, Wis., USA) was used to synthesize cDNA. Here, PCR was performed by using TaKaRa Taq™ (Takara bio Inc., Shiga, Japan), wherein a primer set of cathepsin S consists of a forward primer having SEQ ID NO: 1 (forward sequence: 5′-GCAGTGGCACAGTTGCATAA-3′) and a reverse primer having SEQ ID NO: 2 (reverse sequence: 5′-AGCACCACAAGAACCCATGT-3′). After the PCR product was subjected to agarose gel electrophoresis, the PCR product was stained with ethidium bromide (0.5 μg/ml), thereby obtaining images thereof by using the gel imaging system (UVP, Cambridge, UK). Here, the PCR product was quantified based on glyceraldehyde 3-phosphate dehydrogenase (GAPDH). A GAPDH primer used herein consists of a forward primer having SEQ ID NO: 3 (forward sequence: 5′-GGTGAAGGTCGGAGTCAACG-3′) and a reverse primer having SEQ ID NO: 4 (reverse sequence: 5′-CAAAGTTGTCATGGATGACC-3′).
Furthermore, to screen other amidopyridinol derivatives that inhibit metastasis of breast cancer cells, inhibitory effects on expression of cathepsin S genes were reviewed by treating 1 μM of each compound, in the same manner as in Experimental Example 9.

A549 lung cancer cells = experiment: CAM inoculated with A549 lung cancer cells: angiogenesis and tumor growth; format: in vivo, chicken; conditions: for Inhibition rates of angiogenesis (%) / Inhibition rates of tumor growth (%): A549 on CAM, 5 days; for inhibitory effects on angiogenesis and tumor growth (in words): at each density
Description: To confirm inhibitory effects on angiogenesis through in vivo experiments, the CAM analysis was carried out (refer to Nguyen M et al., Microvascular Res., 47, pp 31-40, 1994). A fertilized egg of a chicken was cultured in conditions maintaining a temperature of 37° C. and relative humidity of 55%. On the 9th day of the culturing, a first small hole was made on an air sac part using a hypodermic needle (Green Cross Medical Corp., Korea), and then, a second hole was made on a flat part of the fertilized egg to make a window thereon. Air was removed through the first hole, i.e., the air sac part, and accordingly, the CAM was separated from the shell of the fertilized egg. Then, a grinding wheel (Multipro 395JA, Dremel, Mexico) was used to cut the air sac part, thereby making a window thereon. Meanwhile, A549 lung cancer cells were mixed with matrigel at a ratio of 1:1, and then, the mixture was treated with Compounds 8a, 8b, and 8g, respectively, followed by being inoculated at a density of 1.5×10^6 cells/CAM.
After 5 days of the inoculation, the CAM part on which tumors were formed was isolated, and then, washed with PBS. The Stemi SV6 stereomicroscope (Carl Zeiss, Germany) and the Image-Pro Plus software (Media Cybernetics; Silver Spring, Md., USA) were used to capture images of the CAM part, so as to measure the number of the blood vessels and to analyze data obtained therefrom.

HT-29 cells / U937 cells = experiment: TNF-α-induced adhesion of HT-29 intestinal epithelial cells and U937 mononuclear cells; format: cell-based, human; conditions: Homo sapiens; 1 μM, pre-treated 1 hour; TNF-α 10 ng/ml; read-out: Inhibitory rates (%)
Method in brief: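 HT-29 cells were pretreated with compound for 1 h in serum-free medium, then stimulated with TNF-α 10 ng/ml for 3 h at 37 °C. BCECF-AM-labelled U937 cells were co-incubated for 1 h at 37 °C. Non-adherent cells were washed off, and lysates in 0.1% Triton X-100/0.1 M Tris were read by fluorescence.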

[1] = ARPE-19 treated with 4-hydroxynonenal (4-HNE)
[2] = ARPE-19 treated with angiotensin II (Ang II)

Row | SMILES | intensity of fluorescence in the cells (ROS) (HUVEC cells) | intensity of fluorescence (ROS) (ARPE-19 cell line; [1]) | intensity of fluorescence (ROS) (ARPE-19 cell line; [2]) | inhibition at 1 µM (cathepsin S) | Inhibition rates of angiogenesis (%) (A549 lung cancer cells; 0.001 pmol/CAM) | Inhibition rates of tumor growth (%) (A549 lung cancer cells; 0.001 pmol/CAM) | Inhibition rates of angiogenesis (%) (A549 lung cancer cells; 0.01 pmol/CAM) | Inhibition rates of tumor growth (%) (A549 lung cancer cells; 0.01 pmol/CAM) | Inhibition rates of angiogenesis (%) (A549 lung cancer cells; 0.1 pmol/CAM) | Inhibition rates of tumor growth (%) (A549 lung cancer cells; 0.1 pmol/CAM) | Inhibition rates of angiogenesis (%) (A549 lung cancer cells; 1.0 pmol/CAM) | Inhibition rates of tumor growth (%) (A549 lung cancer cells; 1.0 pmol/CAM) | inhibitory effects on angiogenesis and tumor growth (in words) (A549 lung cancer cells) | inhibition at 1 µM (HT-29 cells / U937 cells)
1 | CCCCCCCCCCCC(=O)Nc1nc(C)c(O)c(C)c1C [Compound 8b, N-(5-hydroxy-3,4,6-trimethylpyridine-2-yl)dodecanamide] | significant decrease in the intensity of fluorescence | significant decrease in the intensity of fluorescence | significant decrease in the intensity of fluorescence | ≥ 50% | 12.2 ± 4.4% | 21.7 ± 8.9% | 18.0 ± 3.2 % | 26.0 ± 10.0% | 21.3 ± 2.0 % | 31.3 ± 7.3 % | 24.7 ± 2.2 % | 38.2 ± 7.2 % | inhibited angiogenesis upon tumorigenesis, as well as tumor growth | 55.8%
2 | CC(=O)Nc1nc(C)c(O)c(C)c1C [Compound 8a, N-(5-hydroxy-3,4,6-trimethylpyridine-2-yl)acetamide] | significant decrease in the intensity of fluorescence | significant decrease in the intensity of fluorescence | significant decrease in the intensity of fluorescence | ≥ 50% | 12.7 ± 6.5% | 20.3 ± 5.9% | 23.8 ± 5.2 % | 34.2 ± 5.3 % | 30.4 ± 3.7 % | 37.9 ± 8.0 % | 41.2 ± 1.4 % | 47.7 ± 4.1 % | inhibited angiogenesis upon tumorigenesis, as well as tumor growth | 55.4%
